Assays:
Format in all cases: cell-based, Escherichia coli
E. coli ΔtolC = experiment: microbe, parasite or virus in culture; conditions: technical duplicate
Procedure, shortened: (§1)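 MHB II broth microdilution; inoculum from 18 h LB culture, PBS-adjusted to OD600 ~1.0, then 1/2000 dilution. Compounds 2-fold titrated, duplicates, DMSO solvent control. 18 h, 37 °C, 900 rpm; background-corrected OD600 end point.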

E. coli EKO-35 = experiment: microbe, parasite or virus in culture
Procedure, shortened: as §1

[1] = test system: wild-type E. coli K-12 str. BW25113; experiment: microbe, parasite or virus in culture; conditions: technical duplicate
Procedure, shortened: as §1

EKO-35-Pore = experiment: MIC susceptibility profiling, porinated strain
Procedure, shortened: (§2)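 E. coli strains carrying a genomically integrated constitutive fhuA ΔC/Δ4L pore were grown 18 h in LB at 37 °C, then diluted 1/2000 in MHB II from OD600 ~1.0. Compounds were tested in duplicate, 2-fold serial titration, for 18 h at 37 °C with shaking. MIC came from OD600 with the pre-incubation background subtracted.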

EKO-35 araC::acrB Pore = experiment: MIC susceptibility profiling, porinated efflux platform
Procedure, shortened: as §2

EKO-35 araC::acrEF Pore = experiment: as above
Procedure, shortened: as §2

EKO-35 araC::mdtEF Pore = experiment: as above
Procedure, shortened: as §2

EKO-35 araC::macAB Pore = experiment: as above
Procedure, shortened: as §2

[2] = test system: EKO-35 araC::acrBD408A Pore; experiment: as above
Procedure, shortened: as §2

EKO-35 araC::mexCD Pore = experiment: as above
Procedure, shortened: as §2

EKO-35 araC::emrAB Pore = experiment: as above
Procedure, shortened: as §2

EKO-35 araC::acrD Pore = experiment: as above
Procedure, shortened: as §2

EKO-35 araC::mdtBC Pore = experiment: as above
Procedure, shortened: as §2

EKO-35 araC::emrKY Pore = experiment: as above
Procedure, shortened: as §2

EKO-35 araC::mdtEF = experiment: MIC susceptibility profiling, efflux platform
Procedure, shortened: as §1

EKO-35 araC::mdtBC = experiment: MIC susceptibility profiling, efflux platform
Procedure, shortened: as §1

ΔtolC-Pore = experiment: microbe, parasite or virus in culture; conditions: technical duplicate
Procedure, shortened: as §2

wild-type (WT) K-12-Pore = experiment: microbe, parasite or virus in culture; conditions: technical duplicate
Procedure, shortened: as §2

[3] = Table 13A, non-porinated, technical duplicate
[4] = Table 14A, porinated, technical duplicate

In the case of O=C(Nc1ccc(C(F)(F)F)cc1)Nc1ccc(C(F)(F)F)cc1 [compound 7], the “Minimum inhibitory concentration (MIC), ΔtolC” value (E. coli ΔtolC; Table 10, without pore) is reported as 0.313 µg/mL, the “Minimum Inhibitory Concentration, ΔtolC” value (E. coli ΔtolC; Table 13A, non-porinated) is reported as 0.313 µg/mL and the “Fold change of MICs” value (E. coli EKO-35; EKO-35 compared to EKO-35 (reference)) is reported as 1 fold. For the same compound, the “Minimum inhibitory concentration (MIC), EKO-35” value (E. coli EKO-35; Table 10, without pore, technical duplicate) was 320 µg/mL, the “Minimum Inhibitory Concentration, EKO-35” value (E. coli EKO-35; [3]) was 320 µg/mL and the “Minimum inhibitory concentration (MIC), K-12” value ([1]; Table 10, without pore) was 320 µg/mL. For the same compound, the “Minimum Inhibitory Concentration, K-12” value ([1]; Table 13A, non-porinated) was 320 µg/mL, the “Fold changes of MICs” value (EKO-35-Pore; EKO-35-Pore compared to EKO-35-Pore (reference)) was 1 fold and the “Minimum inhibitory concentration (MIC), Pore EKO-35” value (EKO-35-Pore; Table 10, with pore, technical duplicate) was 320 µg/mL. For the same compound, the “Minimum inhibitory concentration, EKO-35-Pore” value (EKO-35-Pore; [4]) was 320 µg/mL, the “Fold changes of MICs” value (EKO-35 araC::acrB Pore; EKO-35 araC::acr-B Pore compared to EKO-35-Pore) was 1 fold and the “Minimum inhibitory concentration, EKO-35 araC::acrB Pore” value (EKO-35 araC::acrB Pore; [4]) was 320 µg/mL. For the same compound, the “Fold changes of MICs” value (EKO-35 araC::acrEF Pore; EKO-35 araC::acrEF Pore compared to EKO-35-Pore) was 1 fold, the “Minimum inhibitory concentration, EKO-35 araC::acrEF Pore” value (EKO-35 araC::acrEF Pore; [4]) was 320 µg/mL and the “Fold changes of MICs” value (EKO-35 araC::mdtEF Pore; EKO-35 araC::mdtEF Pore compared to EKO-35-Pore) was 1 fold. For the same compound, the “Minimum inhibitory concentration, EKO-35 araC::mdtEF Pore” value (EKO-35 araC::mdtEF Pore; [4]) was 320 µg/mL, the “Fold changes of MICs” value (EKO-35 araC::macAB Pore; EKO-35 araC::macAB Pore compared to EKO-35-Pore) was 1 fold and the Minimum inhibitory concentration (EKO-35 araC::macAB Pore; EKO-35 araC::macAB Pore, technical duplicate) was 320 µg/mL. The “Fold changes of MICs” value ([2]; EKO-35 araC::acrBD408A Pore compared to EKO-35-Pore) was 1 fold, the Minimum inhibitory concentration ([2]; EKO-35 araC::acrBD408A Pore, technical duplicate) was 320 µg/mL and the “Fold changes of MICs” value (EKO-35 araC::mexCD Pore; EKO-35 araC::mexCD Pore compared to EKO-35-Pore) was 1 fold. The Minimum inhibitory concentration (EKO-35 araC::mexCD Pore; EKO-35 araC::mexCD Pore, technical duplicate) was 320 µg/mL, the “Fold changes of MICs” value (EKO-35 araC::emrAB Pore; EKO-35 araC::emrAB Pore compared to EKO-35-Pore) was 1 fold and the Minimum inhibitory concentration (EKO-35 araC::emrAB Pore; EKO-35 araC::emrAB Pore, technical duplicate) was 320 µg/mL. The “Fold changes of MICs” value (EKO-35 araC::acrD Pore; EKO-35 araC::acrD Pore compared to EKO-35-Pore) was 1 fold, the “Minimum inhibitory concentration, EKO-35 araC::acrD Pore” value (EKO-35 araC::acrD Pore; [4]) was 320 µg/mL and the “Fold changes of MICs” value (EKO-35 araC::mdtBC Pore; EKO-35 araC::mdtBC Pore compared to EKO-35-Pore) was 1 fold. For the same compound, the Minimum inhibitory concentration (EKO-35 araC::mdtBC Pore; EKO-35 araC::mdtBC Pore, technical duplicate) was 320 µg/mL, the “Fold changes of MICs” value (EKO-35 araC::emrKY Pore; EKO-35 araC::emrKY Pore compared to EKO-35-Pore) was 1 fold and the Minimum inhibitory concentration (EKO-35 araC::emrKY Pore; EKO-35 araC::emrKY Pore, technical duplicate) was 320 µg/mL. The “Fold change of MICs” value (EKO-35 araC::mdtEF; EKO-35 araC::mdtEF compared to EKO-35) was 1 fold, the “Minimum Inhibitory Concentration, EKO-35 araC::mdtEF” value (EKO-35 araC::mdtEF; [3]) was 320 µg/mL and the “Fold change of MICs” value (EKO-35 araC::mdtBC; EKO-35 araC::mdtBC compared to EKO-35) was 1 fold. The “Minimum Inhibitory Concentration, EKO-35 araC::mdtBC” value (EKO-35 araC::mdtBC; Table 13B, non-porinated, technical duplicate) was 320 µg/mL, the “Minimum inhibitory concentration (MIC), Pore ΔtolC” value (ΔtolC-Pore; Table 10, with pore) was 0.313 µg/mL and the “Minimum inhibitory concentration, ΔtolC-Pore” value (ΔtolC-Pore; Table 14A, porinated) was 0.313 µg/mL. For the same compound, the “Minimum inhibitory concentration (MIC), Pore K-12” value (wild-type (WT) K-12-Pore; Table 10, with pore) was 320 µg/mL and the “Minimum inhibitory concentration, K-12 (WT)-Pore” value (wild-type (WT) K-12-Pore; Table 14A, porinated) was 320 µg/mL.

Reference: patent US20230407243A1, “GENETIC PLATFORM TO INVESTIGATE THE FUNCTIONS OF BACTERIAL DRUG EFFLUX PUMPS” (priority 2022, published 2023)
